Here are results for seven compounds from publication PMC3117834 (PLoS ONE, 2011).

What all share (format): biochemical
For assay [1], the target named is T1, Hog1 (Saccharomyces cerevisiae, UniProt P32485).
T1 construct: pGEX-4T1 E. coli version also made
T1 sequence (P32485 2-435): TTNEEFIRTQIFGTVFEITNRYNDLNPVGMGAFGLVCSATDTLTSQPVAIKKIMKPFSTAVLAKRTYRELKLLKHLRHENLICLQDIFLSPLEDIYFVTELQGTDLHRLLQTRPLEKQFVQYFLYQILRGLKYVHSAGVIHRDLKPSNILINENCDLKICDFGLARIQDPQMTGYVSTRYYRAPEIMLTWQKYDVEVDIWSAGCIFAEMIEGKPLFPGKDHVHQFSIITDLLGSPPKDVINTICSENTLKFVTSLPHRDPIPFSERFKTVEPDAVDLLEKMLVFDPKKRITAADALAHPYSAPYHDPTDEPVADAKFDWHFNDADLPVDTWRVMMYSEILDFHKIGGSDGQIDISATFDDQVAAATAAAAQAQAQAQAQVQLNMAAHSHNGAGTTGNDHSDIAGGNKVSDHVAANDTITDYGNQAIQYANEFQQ
In words: […] kinase assay, Sic1 phosphorylation, autoradiography.

Assay [2] has as its target T2, Pbs2 (Saccharomyces cerevisiae, UniProt P08018, M435A).
T2 construct: GST fusion (pGEX-4T1) from E. coli DH5alpha
T2 sequence (P08018 1-668 M435A): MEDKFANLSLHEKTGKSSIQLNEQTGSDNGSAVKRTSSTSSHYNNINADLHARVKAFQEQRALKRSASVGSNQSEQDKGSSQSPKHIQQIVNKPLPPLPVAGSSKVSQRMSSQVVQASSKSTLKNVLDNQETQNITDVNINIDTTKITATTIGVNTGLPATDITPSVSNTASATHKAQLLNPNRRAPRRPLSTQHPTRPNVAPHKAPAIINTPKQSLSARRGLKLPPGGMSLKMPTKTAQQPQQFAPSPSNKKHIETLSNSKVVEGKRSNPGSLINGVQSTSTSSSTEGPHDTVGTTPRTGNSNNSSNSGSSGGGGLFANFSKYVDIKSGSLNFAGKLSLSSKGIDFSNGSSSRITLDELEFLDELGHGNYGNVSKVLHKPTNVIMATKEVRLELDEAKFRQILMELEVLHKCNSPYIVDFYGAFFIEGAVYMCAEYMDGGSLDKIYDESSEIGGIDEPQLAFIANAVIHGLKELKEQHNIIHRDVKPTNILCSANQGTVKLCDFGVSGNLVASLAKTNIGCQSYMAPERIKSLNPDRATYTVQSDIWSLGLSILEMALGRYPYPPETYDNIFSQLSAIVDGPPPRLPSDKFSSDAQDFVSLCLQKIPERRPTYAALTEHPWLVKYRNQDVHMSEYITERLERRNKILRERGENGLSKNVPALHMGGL
In words: […] kinase assay, Hog1 phosphorylation, autoradiography.

Assay [3] concerns the target T3, Hog1 (Saccharomyces cerevisiae, UniProt P32485, T100G).
T3 construct: pGEX-4T1 E. coli version also made
The experiment in a line: […] kinase assay, Sic1 phosphorylation, autoradiography.

The target of assay [4] is T3, Hog1. Described as above. The source holds these as a separate data set.
Assay [5] has as its target T2, Pbs2. The experiment in a line: […] kinase assay, Hog1 phosphorylation, autoradiography. Particulars: [gamma-32P]-phenethyl-ATP as phosphodonor; GST-Hog1 substrate; pH 8.0; 30 °C.
Assay [6] deals with T3, Hog1. In words: […] kinase assay, Sic1 phosphorylation, autoradiography. Particulars: in vitro-activated Hog1as.

A word on the inhibition: it is the drop in the measured response relative to a control, in per cent. A word on the IC50: it is the midpoint of a concentration-inhibition curve.

Bounds are passed on as bounds.

T3 sequence (P32485 2-435 T100G): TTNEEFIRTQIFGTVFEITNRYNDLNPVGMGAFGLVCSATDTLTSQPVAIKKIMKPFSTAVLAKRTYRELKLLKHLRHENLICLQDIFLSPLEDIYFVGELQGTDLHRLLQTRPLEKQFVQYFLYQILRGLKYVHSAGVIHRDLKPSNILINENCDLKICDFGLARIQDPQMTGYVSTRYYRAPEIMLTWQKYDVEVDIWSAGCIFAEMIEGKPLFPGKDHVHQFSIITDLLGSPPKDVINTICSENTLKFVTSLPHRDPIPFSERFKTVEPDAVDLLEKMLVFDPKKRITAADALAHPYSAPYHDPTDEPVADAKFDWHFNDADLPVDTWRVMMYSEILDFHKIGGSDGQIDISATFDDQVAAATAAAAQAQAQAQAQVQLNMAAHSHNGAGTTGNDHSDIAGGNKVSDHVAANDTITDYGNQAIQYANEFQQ

`CC(C)n1nc(-c2ccc(F)cc2)c2c(N)ncnc21` [5b, 3-(4-Fluorophenyl)-1-isopropyl-1H-pyrazolo[3,4-d]pyrimidin-4-amine] showed an inhibition at 5 µM at Hog1 [1] of 94%.
As for `CC(C)n1nc(C#Cc2ccccc2)c2c(N)ncnc21` [6a, 1-Isopropyl-3-(phenylethynyl)-1H-pyrazolo[3,4-d]pyrimidin-4-amine], the results for the IC50 against Pbs2 [2] and against Hog1 [3] were 4.02 ± 0.26 nM and 37 ± 2.72 nM, respectively.
Regarding `CC(C)n1nc(C#Cc2ccc(F)cc2)c2c(N)ncnc21` [6b, 3-((4-fluorophenyl)ethynyl)-1-isopropyl-1H-pyrazolo[3,4-d]pyrimidin-4-amine], the inhibition at 5 µM against Hog1 [4] is over 89%. The “% inhibition at 5 μM” value on Pbs2 [5] is given as “Pbs2as was inhibited by all the compounds in vitro”.
The compound `CC(C)n1nc(C#Cc2ccc(Cl)cc2)c2c(N)ncnc21` [6c, 3-((4-chlorophenyl)ethynyl)-1-isopropyl-1H-pyrazolo[3,4-d]pyrimidin-4-amine] gave an inhibition at 5 µM on Hog1 [4] of over 89%.
For `Nc1ncnc2c1c(C#Cc1ccccc1)nn2CCO` [7a, 2-(4-amino-3-(phenylethynyl)-1H-pyrazolo[3,4-d]pyrimidin-1-yl)etanol], on Hog1 [6], the “32P kinase assay, Sic1 phosphorylation, autoradiography” value is given as “in vitro these compounds were able to inhibit Hog1as as efficiently as 6a”.
As for `Nc1ncnc2c1c(C#Cc1ccccc1)nn2CC(O)CO` (stereo not shown) [7b, 3-(4-amino-3-(phenylethynyl)-1H-pyrazolo[3,4-d]pyrimidin-1-yl)propane-1,2-diol], the “32P kinase assay, Sic1 phosphorylation, autoradiography” value on Hog1 [6] is listed as “in vitro these compounds were able to inhibit Hog1as as efficiently as 6a”.
Take `CC(C)(C)n1nc(Cc2cccc3ccccc23)c2c(N)ncnc21` [compound 9, 1-NM-PP1]: the IC50 was determined as 7.54 ± 0.25 nM against Pbs2 [2] and 9.47 ± 0.38 nM against Hog1 [3].
